The subject of one assay is 429239-143-T-J1-PDC complex spheroid viability. The assay can be described thus: Anticancer human tumor 429239-143-T-J1-PDC patient-derived small cell lung carcinoma cell line growth inhibition [POLQ]. The conditions noted are these: second compound 3.16 µM; first compound 0.1 µM; active compounds read low. Summed up: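 Patient-derived tumour cells were co-cultured with HUVEC and mesenchymal stem cells as multicellular spheroids at 37 °C. They were treated with POLQ inhibitors (novobiocin, ART-558, RP6685) alone or combined with other agents. Top concentrations were at or near clinical Cmax (otherwise 10 microM; SN-38 at 1 microM), decreasing in half-log steps.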
The viability, T/C is the ratio of treated to control. Turning to `COc1cc2cc(C(=O)CCC(=O)O)sc2cc1OC` + Cc1cccc(N(C)C(=O)C2C(O)CCN2c2nc(C)cc(C(F)(F)F)c2C#N)c1, the viability, T/C is 96.3%.

`CC1COCCN1c1cc(-c2ccnn2C)c2ccnc(-c3ccn[nH]3)c2n1` (stereo unspecified) + Nc1ccc(C#CCN(C(=O)Cc2ncc(C(F)(F)F)cc2C(F)(F)F)c2ccc(F)cc2)nn1: the viability, T/C was 72.5%.

For the compound `COc1cccc2c1C(=O)c1c(O)c3c(c(O)c1C2=O)CC(O)(C(=O)CO)CC3OC1CC(N)C(O)C(C)O1` (stereo unspecified) + Nc1ccc(C#CCN(C(=O)Cc2ncc(C(F)(F)F)cc2C(F)(F)F)c2ccc(F)cc2)nn1, the viability, T/C is 34.8%.

Staying with this assay, now noted: second compound 3.16 µM; first compound 0.316 µM; active compounds read low.
On to `C#Cc1c(F)ccc2cc(O)cc(-c3ncc4c(N5CC6CCC(C5)N6)nc(OCC56CCCN5CC(F)C6)nc4c3F)c12` (stereo unspecified) + Cc1cccc(N(C)C(=O)C2C(O)CCN2c2nc(C)cc(C(F)(F)F)c2C#N)c1, for which the viability, T/C is 106%.

For `CC1COCCN1c1cc(-c2ccnn2C)c2ccnc(-c3ccn[nH]3)c2n1` (stereo unspecified) + Cc1cccc(N(C)C(=O)C2C(O)CCN2c2nc(C)cc(C(F)(F)F)c2C#N)c1, the viability, T/C is 35%.

As to `COc1cc2cc(C(=O)CCC(=O)O)sc2cc1OC` + Cc1cccc(N(C)C(=O)C2C(O)CCN2c2nc(C)cc(C(F)(F)F)c2C#N)c1, the viability, T/C was 103%.

For `CC1COCCN1c1cc(-c2ccnn2C)c2ccnc(-c3ccn[nH]3)c2n1` (stereo unspecified) + Nc1ccc(C#CCN(C(=O)Cc2ncc(C(F)(F)F)cc2C(F)(F)F)c2ccc(F)cc2)nn1, the viability, T/C is 53.1%.

With `COc1cccc2c1C(=O)c1c(O)c3c(c(O)c1C2=O)CC(O)(C(=O)CO)CC3OC1CC(N)C(O)C(C)O1` (stereo unspecified) + Nc1ccc(C#CCN(C(=O)Cc2ncc(C(F)(F)F)cc2C(F)(F)F)c2ccc(F)cc2)nn1, the viability, T/C was 5.88%.

The assay is the same for the next values; noted with them: second compound 3.16 µM; first compound 1 µM; active compounds read low.
Turning to `C#Cc1c(F)ccc2cc(O)cc(-c3ncc4c(N5CC6CCC(C5)N6)nc(OCC56CCCN5CC(F)C6)nc4c3F)c12` (stereo unspecified) + Cc1cccc(N(C)C(=O)C2C(O)CCN2c2nc(C)cc(C(F)(F)F)c2C#N)c1, the viability, T/C is 86.3%.

Take `CC1COCCN1c1cc(-c2ccnn2C)c2ccnc(-c3ccn[nH]3)c2n1` (stereo unspecified) + Cc1cccc(N(C)C(=O)C2C(O)CCN2c2nc(C)cc(C(F)(F)F)c2C#N)c1: the viability, T/C was 16.1%.

Regarding `COc1cc2cc(C(=O)CCC(=O)O)sc2cc1OC` + Cc1cccc(N(C)C(=O)C2C(O)CCN2c2nc(C)cc(C(F)(F)F)c2C#N)c1, the viability, T/C was 105%.

As for `CC1COCCN1c1cc(-c2ccnn2C)c2ccnc(-c3ccn[nH]3)c2n1` (stereo unspecified) + Nc1ccc(C#CCN(C(=O)Cc2ncc(C(F)(F)F)cc2C(F)(F)F)c2ccc(F)cc2)nn1, the viability, T/C is 26.6%.

In the case of `COc1cccc2c1C(=O)c1c(O)c3c(c(O)c1C2=O)CC(O)(C(=O)CO)CC3OC1CC(N)C(O)C(C)O1` (stereo unspecified) + Nc1ccc(C#CCN(C(=O)Cc2ncc(C(F)(F)F)cc2C(F)(F)F)c2ccc(F)cc2)nn1, the viability, T/C was 0.94%.

The same assay, now with this note: second compound 3.16 µM; first compound 3.16 µM; active compounds read low.
On to `C#Cc1c(F)ccc2cc(O)cc(-c3ncc4c(N5CC6CCC(C5)N6)nc(OCC56CCCN5CC(F)C6)nc4c3F)c12` (stereo unspecified) + Cc1cccc(N(C)C(=O)C2C(O)CCN2c2nc(C)cc(C(F)(F)F)c2C#N)c1, for which the viability, T/C was 95.4%.

As for `CC1COCCN1c1cc(-c2ccnn2C)c2ccnc(-c3ccn[nH]3)c2n1` (stereo unspecified) + Cc1cccc(N(C)C(=O)C2C(O)CCN2c2nc(C)cc(C(F)(F)F)c2C#N)c1, the viability, T/C was 11.2%.

As for `COc1cc2cc(C(=O)CCC(=O)O)sc2cc1OC` + Cc1cccc(N(C)C(=O)C2C(O)CCN2c2nc(C)cc(C(F)(F)F)c2C#N)c1, the viability, T/C is 115%.

As to `CC1COCCN1c1cc(-c2ccnn2C)c2ccnc(-c3ccn[nH]3)c2n1` (stereo unspecified) + Nc1ccc(C#CCN(C(=O)Cc2ncc(C(F)(F)F)cc2C(F)(F)F)c2ccc(F)cc2)nn1, the viability, T/C was 5.52%.

Take `COc1cccc2c1C(=O)c1c(O)c3c(c(O)c1C2=O)CC(O)(C(=O)CO)CC3OC1CC(N)C(O)C(C)O1` (stereo unspecified) + Nc1ccc(C#CCN(C(=O)Cc2ncc(C(F)(F)F)cc2C(F)(F)F)c2ccc(F)cc2)nn1: the viability, T/C was 1.4%.

Staying with this assay, now noted: second compound 3.16 µM; first compound 10 µM; active compounds read low.
Regarding `C#Cc1c(F)ccc2cc(O)cc(-c3ncc4c(N5CC6CCC(C5)N6)nc(OCC56CCCN5CC(F)C6)nc4c3F)c12` (stereo unspecified) + Cc1cccc(N(C)C(=O)C2C(O)CCN2c2nc(C)cc(C(F)(F)F)c2C#N)c1, the viability, T/C is 92%.

For `CC1COCCN1c1cc(-c2ccnn2C)c2ccnc(-c3ccn[nH]3)c2n1` (stereo unspecified) + Cc1cccc(N(C)C(=O)C2C(O)CCN2c2nc(C)cc(C(F)(F)F)c2C#N)c1, the viability, T/C was 10.4%.

As for `COc1cc2cc(C(=O)CCC(=O)O)sc2cc1OC` + Cc1cccc(N(C)C(=O)C2C(O)CCN2c2nc(C)cc(C(F)(F)F)c2C#N)c1, the viability, T/C was 101%.

In the case of `CC1COCCN1c1cc(-c2ccnn2C)c2ccnc(-c3ccn[nH]3)c2n1` (stereo unspecified) + Nc1ccc(C#CCN(C(=O)Cc2ncc(C(F)(F)F)cc2C(F)(F)F)c2ccc(F)cc2)nn1, the viability, T/C is 3.58%.

In the case of `COc1cccc2c1C(=O)c1c(O)c3c(c(O)c1C2=O)CC(O)(C(=O)CO)CC3OC1CC(N)C(O)C(C)O1` (stereo unspecified) + Nc1ccc(C#CCN(C(=O)Cc2ncc(C(F)(F)F)cc2C(F)(F)F)c2ccc(F)cc2)nn1, the viability, T/C is 0.16%.

The assay is the same for the next values; noted with them: second compound 10 µM; first compound 0.0316 µM; active compounds read low.
Take `C#Cc1c(F)ccc2cc(O)cc(-c3ncc4c(N5CC6CCC(C5)N6)nc(OCC56CCCN5CC(F)C6)nc4c3F)c12` (stereo unspecified) + Cc1cccc(N(C)C(=O)C2C(O)CCN2c2nc(C)cc(C(F)(F)F)c2C#N)c1: the viability, T/C was 100%.

As to `CC1COCCN1c1cc(-c2ccnn2C)c2ccnc(-c3ccn[nH]3)c2n1` (stereo unspecified) + Cc1cccc(N(C)C(=O)C2C(O)CCN2c2nc(C)cc(C(F)(F)F)c2C#N)c1, the viability, T/C was 77.4%.

For the compound `COc1cc2cc(C(=O)CCC(=O)O)sc2cc1OC` + Cc1cccc(N(C)C(=O)C2C(O)CCN2c2nc(C)cc(C(F)(F)F)c2C#N)c1, the viability, T/C is 104%.

For the origin of these results see PubChem BioAssay AID1963845 (Molecular Pharmacology Branch, DTP, NCI, 2024).
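Note: luminescence signal used as surrogate measure of viable cells; spheroids exposed to compounds for seven days before readout; 100% = DMSO vehicle control viability as luminescence relative to vehicle.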
